Reference: US7507727B2, “Substituted quinobenzoxazine analogs and methods of using thereof” (Cylene Pharmaceuticals, Inc., priority 2003, dated 2009)
Like-named read-outs stand apart in the source and are kept apart here.

Key:
HeLa cells = assay: MTS cell proliferation and/or cytotoxicity assay; assay type: cell-based, Human
Outline: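 HeLa cells seeded at 4,500 cells/well, exposed to compounds from day 1 for 3 days at 37 °C, 5% CO2. Viability by MTS/PMS (20:1) with 4 h incubation, absorbance at 490 nm. Values are concentrations giving 50% antiproliferative response.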

[1] = molecular target: c-Myc template DNA (c-myc quadruplex); assay: Quadruplex binding / stop assay (Taq polymerase arrest, capillary electrophoresis)
[2] = Homo sapiens, HeLa, 72 h, concentration at which 50% of antiproliferative cell response is seen, 3 days incubation, read-out: MTS Data Hella
[3] = read-out: Stop Data c-Myc μM, concentration at which 50% of the DNA was arrested (arrested:full-length 1:1)
[4] = concentration at which 50% of antiproliferative cell response is seen, 3 days incubation, read-out: MTS Data Hella
[5] = Homo sapiens, HeLa, HeLa cells, MTS, read-out: Hela MTS
[6] = read-out: S DATA, Table 1D, stop assay data

SMILES | IC50 (HeLa cells; [2]) [nM] | IC50 [1, 3] [µM] | IC50 (HeLa cells; [4]) [nM] | IC50 (HeLa cells; [5]) [nM] | IC50 [1, 6] [µM]
CN1CCCC1CCNC(=O)c1cn2c3c(c(N4CCC(N)C4)c(F)cc3c1=O)Oc1cc(-c3nc4ccccc4s3)ccc1-2 (stereo not drawn) [compound 311] | 2100 | 1 | – | – | –
CN1CCCC1CCNC(=O)c1cn2c3c(c(N4CC[C@H](N)C4)c(F)cc3c1=O)Oc1cc3ccccc3cc1-2 (stereo partly drawn) [compound 474] | 370 | 0.58 | – | – | –
CCN(CC)CCCC(C)NC(=O)c1cn2c3c(c(N4CCC(c5cnccn5)C4)ccc3c1=O)Oc1cc3ccccc3cc1-2 (stereo not drawn) [compound 309] | 3000 | 1 | – | – | –
CC(C)(C)OC(=O)NC1CCN(c2c(F)cc3c(=O)c(C(=O)NCCN4CCCC4)cn4c3c2Oc2cc3c(cc2-4)oc2ccccc23)C1 (stereo not drawn) [compound 384] | 370 | 0.75 | – | – | –
CN1CCCC1CCNC(=O)c1cn2c3c(c(N4CCC(N)C4)c(F)cc3c1=O)Oc1cc3ccccc3cc1-2 (stereo not drawn) [compound 540] | – | 0.375 | 270 | – | –
CCN(CC)C1CCN(c2c(F)cc3c(=O)c(C(=O)NCCC4CCCN4C)cn4c3c2Oc2cc3ccccc3cc2-4)C1 (stereo not drawn) [compound 105] | 2800 | 1.75 | – | – | –
O=C(NCCN1CCOCC1)c1cn2c3c(c(N4CC5CCCNC5C4)c(F)cc3c1=O)Oc1cc3ccccc3cc1-2 (stereo not drawn) [compound 566] | 30 | 0.25 | – | – | –
CN1CCCC1CCNC(=O)c1cn2c3c(c(N4CCC(NC(=O)OC(C)(C)C)C4)c(F)cc3c1=O)Oc1cc3c(cc1-2)oc1ccccc13 (stereo not drawn) [compound 389] | 290 | 0.75 | – | – | –
CN(C)CCCCNC(=O)c1cn2c3c(c(N4CCC(N)C4)ccc3c1=O)Oc1cc3ccccc3cc1-2 (stereo not drawn) [compound 1559] | – | – | – | 240 | 0.18
O=C(CCN1CCCC1)N[C@@H]1CCN(c2c(F)cc3c(=O)c(C(=O)NCCN4CCOCC4)cn4c3c2Oc2cc3c(cc2-4)oc2ccccc23)C1 [compound 504] | 3400 | 0.375 | – | – | –
CN(C)CCCCNc1c(F)cc2c(=O)c(C(=O)NCCN3CCCC3)cn3c4cc5c(cc4oc1c23)c(=O)c1ccccc15 [compound 515] | 2500 | 0.375 | – | – | –
CN1CCCC1CCNC(=O)c1cn2c3c(c(N4CC[C@@H](N)C4)c(F)cc3c1=O)Oc1ccccc1-2 (stereo partly drawn) [compound 111] | 220 | 1.75 | – | – | –
CC(=O)N[C@@H]1CCC(c2c(F)cc3c(=O)c(C(=O)NCCN4CCCC4)cn4c3c2Oc2cc3c(cc2-4)oc2ccccc23)C1 (stereo partly drawn) [compound 370] | 3500 | 0.75 | – | – | –
O=C(NCCN1CCCC1)c1cn2c3c(c(N4CC5CCCNC5C4)c(F)cc3c1=O)Oc1cc3ccccc3cc1-2 (stereo not drawn) [compound 1635] | – | – | – | 300 | 0.18
NC1CCN(c2c(F)cc3c(=O)c(C(=O)NCCN4CCOCC4)cn4c3c2Oc2cc3c(cc2-4)oc2ccccc23)C1 (stereo not drawn) [compound 530] | 720 | 0.375 | – | – | –
CN1CCCC1CCNc1c(F)cc2c(=O)c(C(=O)NCCCN3CCOCC3)cn3c4cc5c(cc4oc1c23)c(=O)c1ccccc15 (stereo not drawn) [compound 523] | 1600 | 0.375 | – | – | –
CN1CCCC1CCNC(=O)c1cn2c3c(c(N4CC[C@@H](NC(=O)CCN5CCCC5)C4)c(F)cc3c1=O)Oc1cc3c(cc1-2)oc1ccccc13 (stereo partly drawn) [compound 483] | 3200 | 0.5 | – | – | –
O=C(CCN1CCCCC1)N[C@@H]1CCN(c2c(F)cc3c(=O)c(C(=O)NCCN4CCCC4)cn4c3c2Oc2cc3c(cc2-4)oc2ccccc23)C1 [compound 308] | 3100 | 1 | – | – | –
CN(C)CCCCNC(=O)c1cn2c3cc4c(cc3oc3c(N5CC[C@H](NC(=O)OC(C)(C)C)C5)c(F)cc(c1=O)c32)c(=O)c1ccccc14 [compound 480] | 3700 | 0.5 | – | – | –
CC(C)NCCCNC(=O)c1cn2c3c(c(N4CCC(N)C4)c(F)cc3c1=O)Oc1cc3ccccc3cc1-2 (stereo not drawn) [compound 541] | 270 | 0.375 | – | – | –
O=C(CN1CCCC1)N[C@@H]1CCN(c2c(F)cc3c(=O)c(C(=O)NCCN4CCCC4)cn4c3c2Oc2cc3c(cc2-4)oc2ccccc23)C1 [compound 506] | 3400 | 0.375 | – | – | –
NC1CCN(c2c(F)cc3c(=O)c(C(=O)NCCc4cnc[nH]4)cn4c3c2Oc2cc3ccccc3cc2-4)C1 (stereo not drawn) [compound 379] | 1900 | 0.75 | – | – | –
CN1CCN(CCCNC(=O)c2cn3c4c(c(N5CC[C@@H](N)C5)c(F)cc4c2=O)Oc2cc4ccccc4cc2-3)CC1 [compound 538] | 280 | 0.375 | – | – | –

SMILES | IC50 (HeLa cells; [2]) [nM] | IC50 [1, 3] [µM] | IC50 (HeLa cells; [4]) [nM] | IC50 (HeLa cells; [5]) [nM] | IC50 [1, 6] [µM]
CN1CCCC1CCNC(=O)c1cn2c3c(c(N4CC5CCCNC5C4)c(F)cc3c1=O)Oc1cc3ccccc3cc1-2 (stereo not drawn) [compound 1636] | – | – | – | 150 | 0.375
CN1CCN(c2c(F)cc3c(=O)c(C(=O)NCCN4CCCC4)cn4c5cc6c(=O)c7ccccc7c(=O)c6cc5oc2c34)CC1 [compound 340] | 8500 | 0.9 | – | – | –
NC1CCN(c2c(F)cc3c(=O)c(C(=O)NCCCn4ccnc4)cn4c3c2Oc2cc3c(cc2-4)oc2ccccc23)C1 (stereo not drawn) [compound 521] | 1700 | 0.375 | – | – | –
CN(C)/C=N/CCCNC(=O)c1cn2c3c(c(N4CC[C@@H](N)C4)c(F)cc3c1=O)Oc1cc3ccccc3cc1-2 [compound 371] | 3500 | 0.75 | – | – | –
O=C(NCCN1CCCC1)c1cn2c3c(c(N4CCC(c5cnccn5)C4)c(F)cc3c1=O)Oc1ccccc1-2 (stereo not drawn) [compound 32] | 600 | 3 | – | – | –
N[C@@H]1CCN(c2c(F)cc3c(=O)c(C(=O)NCCN4CCCC4)cn4c3c2Oc2cc3ccccc3cc2-4)C1 [compound 565] | 200 | 0.25 | – | – | –
O=C(NCCN1CCCC1)c1cn2c3cc4c(cc3oc3c(NCCN5CCCC5)c(F)cc(c1=O)c32)c(=O)c1ccccc14 [compound 577] | 1100 | 0.18 | – | – | –
CN1CCCC1CCNC(=O)c1cn2c3c(c(NCCCN4CCCC4=O)c(F)cc3c1=O)Oc1cc3ccccc3cc1-2 (stereo not drawn) [compound 102] | 2200 | 1.8 | – | – | –
CN1CCCC1CCNC(=O)c1cn2c3c(c(NC[C@@H]4CCCO4)c(F)cc3c1=O)Oc1cc3ccccc3cc1-2 (stereo partly drawn) [compound 26] | – | 4 | 730 | – | –
NC(N)=NCCCNC(=O)c1cn2c3c(c(N4CC[C@@H](N)C4)c(F)cc3c1=O)Oc1cc3ccccc3cc1-2 [compound 512] | 3100 | 0.375 | – | – | –
CN(C)CCCCNC(=O)c1cn2c3c(c(N4CC[C@H](N)C4)c(F)cc3c1=O)Oc1ccccc1-2 [compound 108] | 460 | 1.75 | – | – | –
O=C(CCNCCN1CCOCC1)N[C@@H]1CCN(c2c(F)cc3c(=O)c(C(=O)NCCN4CCCC4)cn4c3c2Oc2cc3c(cc2-4)oc2ccccc23)C1 [compound 358] | 5700 | 0.75 | – | – | –
CN1CCCC1CCNC(=O)c1cn2c3c(c(NC4CN5CCC4CC5)c(F)cc3c1=O)Oc1cc3ccccc3cc1-2 (stereo not drawn) [compound 486] | 390 | 0.5 | – | – | –
CN1CCN(CCC(=O)N[C@@H]2CCN(c3c(F)cc4c(=O)c(C(=O)NCCN5CCCC5)cn5c4c3Oc3cc4c(cc3-5)oc3ccccc34)C2)CC1 [compound 533] | 400 | 0.375 | – | – | –
O=C(NCCCN1CCOCC1)c1cn2c3c(c(N4CC5CCCNC5C4)c(F)cc3c1=O)Oc1cc3ccccc3cc1-2 (stereo not drawn) [compound 1637] | – | – | – | 100 | 0.375
CN1CCCC1CCNC(=O)c1cn2c3c(c(NCCc4c[nH]cn4)c(F)cc3c1=O)Oc1cc3ccccc3cc1-2 (stereo not drawn) [compound 1468] | 350 | 0.375 | – | – | –
O=C(NCCN1CCCC1)c1cn2c3c(c(NCCN4CCCC4)c(F)cc3c1=O)Oc1cc3c(cc1-2)oc1ccccc13 [compound 477] | 2100 | 0.55 | – | – | –
CN1CCCC1CCNC(=O)c1cn2c3c(c(NCCc4ccc(O)c(O)c4)c(F)cc3c1=O)Oc1cc3ccccc3cc1-2 (stereo not drawn) [compound 381] | 1800 | 0.75 | – | – | –
CN1CCN(CCCNc2c(F)cc3c(=O)c(C(=O)NCCC4CCCN4C)cn4c3c2Oc2cc3c(cc2-4)oc2ccccc23)CC1 (stereo not drawn) [compound 363] | 3800 | 0.75 | – | – | –
O=C(NCCN1CCCC1)c1cn2c3c(c(NCCCN4CCOCC4)c(F)cc3c1=O)Oc1cc3c(O)ncnc3cc1-2 [compound 107] | 1800 | 1.75 | – | – | –
CN(C)CCCCNC(=O)c1cn2c3c(c(N4CC[C@@H](N)C4)c(F)cc3c1=O)Oc1ccccc1-2 [compound 106] | 2500 | 1.75 | – | – | –
CN(C)CCCCNC(=O)c1cn2c3c(c(NCCN4CCCC4)ccc3c1=O)Oc1cc3ccccc3cc1-2 [compound 1520] | – | – | – | 200 | 0.375
